Test results reported in patent US10538486B2, “Hydroxamic acid type contrast agent containing radioisotope fluoride, preparation method and application thereof” (Institute of Nuclear Energy Research, Atomic Energy …, priority 2017, dated 2020).

Legend:
Assay type in all cases: biochemical
Details in all cases: 4 concentrations in DMSO, 30 min at room temperature, fluorescence 355/460 nm, FIG. 5
HDAC8 = biological target: T1, HDAC8 (Homo sapiens, UniProt Q9BY41); assay: HDAC Fluorometric Assay Kit enzyme activity assay, HDAC8
T1 construct: purchased Enzolifesciences
T1 sequence (Q9BY41 1-377): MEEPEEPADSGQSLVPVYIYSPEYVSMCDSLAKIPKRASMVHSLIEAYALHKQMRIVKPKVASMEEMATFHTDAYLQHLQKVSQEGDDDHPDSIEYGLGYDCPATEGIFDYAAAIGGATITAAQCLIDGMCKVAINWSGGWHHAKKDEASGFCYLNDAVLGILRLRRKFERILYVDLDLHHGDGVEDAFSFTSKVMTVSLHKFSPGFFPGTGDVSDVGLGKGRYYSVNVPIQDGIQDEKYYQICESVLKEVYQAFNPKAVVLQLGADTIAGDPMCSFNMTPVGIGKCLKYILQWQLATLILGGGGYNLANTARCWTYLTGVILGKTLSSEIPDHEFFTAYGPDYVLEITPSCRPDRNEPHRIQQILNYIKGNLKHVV
Protocol: (§1) To further investigate whether the fluorine-18-hydroxamic acid-based compound is useful as a HDAC inhibitor, the inhibitory effect on HDAC is assayed with the fluorine-19-hydroxamic acid-based compound. The fluorine-18-hydroxamic acid-based compound and the fluorine-19-hydroxamic acid-based compound have the same chemical properties, except that the fluorine-18-hydroxamic acid-based compound has radioactivity, and the fluorine-19-hydroxamic acid-based compound has no radioactivity.
(§2) The fluorine-19-hydroxamic acid-based compound was diluted in dimethyl sulfoxide (DMSO) to give 4 different concentrations. The enzyme activity of various subtypes of HDAC was assayed with a HDAC Fluorometric Assay Kit (available from Enzolifesciences). The fluorine-19-hydroxamic acid-based compound (10 μL) and enzyme (15 μL) were added to a white opaque 96-well plate, and then a substrate (25 μL) was added and incubated for 30 min at room temperature. After incubation, the fluorescence intensity of the 96-well plate was measured on a microplate reader at an excitation wavelength of 355 nm and an emission wavelength of 460 nm, and the fluorescence intensity measured was analyzed by Graph Pad Prism 6 to calculate IC50 (as shown in FIG. 5).

HDAC6 = biological target: T2, HDAC6 (Homo sapiens, UniProt Q9UBN7); assay: HDAC Fluorometric Assay Kit enzyme activity assay, HDAC6
T2 construct: purchased Enzolifesciences
T2 sequence (Q9UBN7 1-1215): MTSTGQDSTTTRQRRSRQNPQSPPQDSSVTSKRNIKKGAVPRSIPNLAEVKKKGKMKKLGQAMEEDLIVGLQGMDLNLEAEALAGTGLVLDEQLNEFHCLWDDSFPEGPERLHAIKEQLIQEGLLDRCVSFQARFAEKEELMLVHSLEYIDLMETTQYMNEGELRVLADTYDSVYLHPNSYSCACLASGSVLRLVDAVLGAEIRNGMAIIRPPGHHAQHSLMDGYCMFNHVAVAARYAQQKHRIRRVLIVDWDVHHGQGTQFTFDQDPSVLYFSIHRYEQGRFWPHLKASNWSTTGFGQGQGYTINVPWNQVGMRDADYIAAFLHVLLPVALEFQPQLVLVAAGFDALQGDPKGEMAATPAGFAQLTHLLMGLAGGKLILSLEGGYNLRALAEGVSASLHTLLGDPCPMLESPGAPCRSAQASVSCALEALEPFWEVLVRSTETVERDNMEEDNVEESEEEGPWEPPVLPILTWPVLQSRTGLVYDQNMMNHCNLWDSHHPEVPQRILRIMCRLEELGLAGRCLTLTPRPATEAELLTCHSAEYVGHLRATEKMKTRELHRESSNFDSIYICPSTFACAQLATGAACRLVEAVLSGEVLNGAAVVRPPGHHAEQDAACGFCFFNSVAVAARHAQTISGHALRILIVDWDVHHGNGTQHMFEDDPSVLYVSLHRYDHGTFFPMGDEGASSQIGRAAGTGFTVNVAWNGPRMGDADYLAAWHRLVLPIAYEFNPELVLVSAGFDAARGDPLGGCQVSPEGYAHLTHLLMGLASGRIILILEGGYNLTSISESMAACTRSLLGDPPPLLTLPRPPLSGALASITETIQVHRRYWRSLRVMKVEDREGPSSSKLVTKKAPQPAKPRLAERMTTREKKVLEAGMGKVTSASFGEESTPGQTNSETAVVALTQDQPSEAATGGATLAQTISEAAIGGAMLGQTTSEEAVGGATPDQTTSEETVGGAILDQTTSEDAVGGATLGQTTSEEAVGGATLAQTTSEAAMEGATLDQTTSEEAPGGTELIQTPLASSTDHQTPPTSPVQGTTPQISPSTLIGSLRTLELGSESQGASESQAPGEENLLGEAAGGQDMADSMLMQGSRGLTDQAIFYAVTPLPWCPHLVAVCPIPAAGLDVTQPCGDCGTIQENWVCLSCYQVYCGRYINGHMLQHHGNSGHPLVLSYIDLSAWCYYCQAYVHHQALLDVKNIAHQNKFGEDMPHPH
Protocol: as §1, §2

HDAC3 = biological target: T3, HDAC3 (Homo sapiens, UniProt O15379); assay: HDAC Fluorometric Assay Kit enzyme activity assay, HDAC3
T3 construct: purchased Enzolifesciences
Protocol: as §1, §2

T3 sequence (O15379 whole entry, species assumed): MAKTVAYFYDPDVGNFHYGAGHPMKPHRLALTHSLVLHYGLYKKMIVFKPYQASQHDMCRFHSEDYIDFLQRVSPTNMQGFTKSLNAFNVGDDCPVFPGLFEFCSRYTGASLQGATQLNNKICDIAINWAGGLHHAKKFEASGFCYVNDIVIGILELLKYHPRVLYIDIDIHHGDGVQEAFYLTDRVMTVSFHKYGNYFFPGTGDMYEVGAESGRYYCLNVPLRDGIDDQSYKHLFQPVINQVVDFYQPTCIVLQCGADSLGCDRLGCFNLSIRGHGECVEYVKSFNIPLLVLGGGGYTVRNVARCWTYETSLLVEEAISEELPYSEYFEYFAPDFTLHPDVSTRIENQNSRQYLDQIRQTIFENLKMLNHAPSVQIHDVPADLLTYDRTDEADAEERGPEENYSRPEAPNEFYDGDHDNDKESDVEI
T3 sequence (O75376 395-489 partner limits assumed, species assumed): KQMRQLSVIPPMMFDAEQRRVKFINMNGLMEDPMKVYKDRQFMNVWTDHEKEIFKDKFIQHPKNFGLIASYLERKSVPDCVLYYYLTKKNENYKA

Cc1cc(F)ccc1OCCCC(=O)NO
selectively inhibited: IC50, inhibitory effect on HDAC8 (HDAC8) | IC50, inhibitory effect on HDAC6 (HDAC6) | IC50, inhibitory effect on HDAC3 (HDAC3)
